Key:
transgenic canola lines = experiment: Glyphosate spray test, reproductive scores of transgenic canola (Example 20); format: in vivo, Brassica napus; details: 0.28 Kg/ha, 28 days after spraying; lines with A. thaliana meristematic promoter (pMON992) versus enhanced CaMV35S promoter only (pMON987); FIG. 11
Procedure: The transgenic, differentiated plants obtained containing the variant EPSP synthase gene as described above were analyzed for resistance to glyphosate. The transgenic plants containing the Arabidopsis EPSP synthase gene (as described) directed by the Arabidopsis thaliana promoter as also described above contained pMON992 while those plants containing the Arabidopsis EPSP synthase gene driven only by the enhanced CaMV35S promoter contained pMON987. These transgenic plants were planted and the seed from the R° plants harvested, threshed and dried before planting for a glyphosate spray test. The progeny were planted in 4-inch square pots of Metro 350 and three types of slow release fertilizers. A goal of twenty seedlings from each R° plant is desirable for testing. Germination frequency is usually high but overplanting ensures that twenty seedlings are present. The plants were thinned down by selecting the twenty most vigorous and erect seedlings seven to ten days after planting. A negative control (non-transformed, "Westar" variety) was planted at the same time to maintain quality and display the results. The plants were maintained and grown in a greenhouse environment. A sixteen-hour photoperiod and a temperature of 21° C. (day) and 15° C. (night) was maintained. Water soluble Peters Pete Lite fertilizer with an analysis of 20-19-18 was applied once per week or as needed. […]

tomato leaf fragments = experiment: Tomato leaf callus assay on glyphosate; format: cell-based, tomato VF36; details: 0.5 mM glyphosate, 10 days
Procedure: Sterile seedlings of VF36 tomato are grown on water agar. Hypocotyls and cotyledons are excised and cultured for 2 days on MS medium containing B5 vitamins, 30 g/l sucrose and 1 mg/l benzyladenine and 0.1 mg/l indole acetic acid. The seedlings are then infected with the A. tumefaciens vector containing the chimeric EPSPS gene described in Example 2, by immersing for about 30 seconds in a culture of A. tumefaciens containing the chimeric EPSP synthase gene that had been diluted to 10^7 bacteria/ml. Explants are obtained by cutting sections from the seedlings. The explants are blotted dry and incubated as described previously in Example 2 except that the medium contains only 10% of standard concentration of MS salts. After 2 days of coculture, the explants are transferred to selective medium containing 100 ug/ml kanamycin. Transformed tomato plants grow from the explants. Leaves from these plants are tested for glyphosate resistance using a leaf callus assay described below. Tomato leaf fragments from plants containing vector alone (pMON200) or the pMON546 chimeric EPSPS gene are incubated on callus medium described above containing 0.5 mM glyphosate.

tobacco leaf disks = experiment: Callus growth from tobacco leaf disks on glyphosate; format: cell-based, N. tabacum; details: for callus tissue formation: 0.5 mM glyphosate
Excerpt: Leaf disks were excised from tobacco plants (N. tabacum) and treated as described above with A. tumefaciens cells containing pMON546 (or pMON505, for control cells) and helper plasmid pGV3111-SE.

E. coli 11303 SM-1 = experiment: Growth of E. coli culture in glyphosate-containing growth medium; format: cell-based; details: mutant E. coli 11303 SM-1, glyphosate 10 mM or higher in growth medium
Procedure: Cells of E. coli ATCC 11303 were transferred to medium A and incubated at 37° C.
(§1) This mutant bacterium was designated E. coli 11303 SM-1. The aroA gene encoding EPSPS from this mutant bacterium was isolated as follows.

cotton tumor tissue = experiment: Cotton tumor tissue growth on medium containing glyphosate; format: cell-based; details: 0.5 mM glyphosate
Procedure: A plant transformation vector similar to pMON546 is prepared following the general procedure outlined in Example 1 except that the CTP/EPSPS coding sequence is obtained from cotton. Seeds of cotton (cultivator Delta Pine 50) are surface sterilized using sodium hypochlorite and germinated in vitro on a basal medium in the dark. After 2 weeks hypocotyls and cotyledons are cut into pieces and innoculated with a tumorous strain of A. tumefaciens containing the above described transformation vector and helper plasmid pGV3111. After 3 days coculture on MS basal medium, the explants are transferred to the same medium with 500 mg/l carbenicillin to kill the bacteria. After 2 to 4 weeks, tumor tissue is transferred to the same medium containing 0.5 mM glyphosate.
Control tissue was produced using tumorous A. tumefaciens cells containing the helper plasmid pGV3111 and pMON200.

EPSPS = EPSPS (Escherichia coli, UniProt P0A6D3); format: biochemical, E. coli
Excerpt: as §1
Isolation of aroA gene encoding EPSPS from E. coli 11303 SM-1: The DNA from this bacterium was isolated (Marmur, J. (1961) J. Mol. Biol. 3:208-218). […] This fragment was cloned into the vector pKC7 (Rao, R. N. & Rogers, S. G. (1979), Gene, F. Jul. 7, 1982) and the resulting plasmid was used for trans-formation of E. coli. […] This clone was designated pMON9538. […] This clone was designated pMON9540. […] The E. coli mutant EPSPS gene was incorporated into plant transformation vector with and without a chloroplast transit peptide in the following manner.

EPSPS, sequence (P0A6D3 whole entry): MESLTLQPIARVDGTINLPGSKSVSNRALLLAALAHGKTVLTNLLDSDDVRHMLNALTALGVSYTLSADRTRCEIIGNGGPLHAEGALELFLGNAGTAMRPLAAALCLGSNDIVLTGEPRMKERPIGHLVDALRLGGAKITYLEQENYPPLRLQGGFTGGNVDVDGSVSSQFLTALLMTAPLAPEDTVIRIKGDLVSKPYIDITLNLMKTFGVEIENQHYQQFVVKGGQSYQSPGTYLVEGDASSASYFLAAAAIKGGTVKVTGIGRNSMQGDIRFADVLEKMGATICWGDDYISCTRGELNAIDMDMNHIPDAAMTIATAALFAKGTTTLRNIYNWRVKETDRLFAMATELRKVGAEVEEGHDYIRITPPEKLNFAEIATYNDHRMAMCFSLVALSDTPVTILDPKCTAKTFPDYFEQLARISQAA

SMILES: O=C(O)CNCP(=O)(O)O [glyphosate, N-phosphonomethylglycine]
- reproductive scores (scale 0-10) (transgenic canola lines): higher reproductive scores
- callus growth from leaves (tomato leaf fragments; control leaves (pMON200 vector alone)): completely inhibited and showed no signs of callus growth
- callus growth from leaves (tomato leaf fragments; leaves from plants transformed with chimeric EPSPS gene (pMON546)): produced callus
- callus tissue formation (tobacco leaf disks; cells transformed with CaMV/EPSPS gene (pMON546)): created substantial amounts of callus tissue
- callus tissue formation (tobacco leaf disks; control cells without the gene (pMON505)): did not create any detectable callus tissue
- glyphosate resistance of transformed tobacco cells (tobacco leaf disks; pMON542, E. coli mutant EPSPS construct with CTP): resulted in glyphosate resistance
- glyphosate resistance of transformed tobacco cells (tobacco leaf disks; pMON8078, E. coli mutant EPSPS construct without CTP): failed to confer glyphosate resistance
- growth of culture (E. coli 11303 SM-1): could grow rapidly
- tissue growth (cotton tumor tissue; pMON200 transformed tissue (control) and non-transformed tissue): is inhibited
- tissue growth (cotton tumor tissue; tissue transformed with cotton CTP/EPSPS vector): demonstrates glyphosate resistance by continuing growth
- glyphosate sensitivity of EPSPS (EPSPS; EPSPS of mutant cells (E. coli 11303 SM-1) compared with wild type E. coli): significantly different from that of wild type
- glyphosate tolerance of EPSPS (EPSPS; EPSPS produced by hybrid K-12/11303 SM-1 aroA gene (pMON9540)): retained its glyphosate tolerance
